Reference: US20220289657A1, “COMPOSITION FOR PREVENTING OR TREATING BACTERIAL INFECTIOUS DISEASE COMPRISING 4-GINGEROL DERIVATIVE COMPOUND AS ACTIVE INGREDIENT” (KOREA UNIVERSITY RESEARCH AND BUSINESS FOUNDATION, SEJONG …, priority 2019, published 2022)
Where two headings read alike, the source gives them in different places. Marks after values point to notes of the source that are not given here.

Experiments:
Pseudomonas aeruginosa [1] = assay: Static biofilm formation assay (crystal violet); type: cell-based; conditions: for Relative biological activity (%) Biofilm formation: Table 4, concentration not given; for activity at 10 µM / activity at 100 µM: Pseudomonas aeruginosa, 24 h, Table 3; for activity at 10 µM / activity at 100 µM / biofilm formation compared with a control (in words): static; for activity at 10 µM: read-out: Relative biological activity (%) Biofilm formation 10; for activity at 100 µM: read-out: Relative biological activity (%) Biofilm formation 100; for biofilm formation compared with a control (in words): 100 μM
Procedure: (§1) Pseudomonas aeruginosa (P. aeruginosa) (OD 595 nm=1.0) was cultured overnight, and diluted in an AB medium (1:20; 300 mM NaCl, 50 mM MgSO4, 0.2% vitamin-free casamino acids, 10 mM potassium phosphate, 1 mM L-arginine, and 1% glucose, pH 7.5) together with a positive control or compound (0100 μM) in a borosilicate bottle. The resulting mixture was incubated without shaking at 37° C. for 24 hours, and to measure growth inhibition activity. OD 595 nm of the suspended culture was measured using a multimode plate reader. Biofilm cells attached to the bottle were washed twice with phosphate-buffered saline (PBS; 137 mM NaCl, 2.7 mM KCl, 10 mM Na2HPO4, and 2 mM KH2PO4, pH 7.2). Afterward, the remaining biofilm cells were stained with 0.1% crystal violet for 10 minutes, and to remove the unbound crystal violet, washed with deionized water. The crystal violet […] to the biofilm cells was eluted with 100% ethanol, and the OD of the eluted ethanol sample was measured at 545 nm using a multimode plate reader.

RhlR = molecular target: T1, RhlR (Pseudomonas aeruginosa, UniProt P54292); assay: cell-based; conditions: for Relative RhIR activity (%) Agonism / Relative RhIR activity (%) Antagonism: Table 4, concentration not given; for activity at 100 µM: read-out: Relative RhlR activity Agonism, Table 2; for Relative RhIR Activity (%) Agonism 100 / Relative RhIR Activity (%) Agonism 1000: Table 3; for Relative RhIR Activity (%) Agonism 1000: 1000 (μM); for remaining activity at 10 µM: read-out: Relative RhIR Activity (%) Antagonism 10, Table 3
T1 construct: expressed in transfected cells; host or cells: E. coli sdiA variant co-transformed with pJN105R and pSC11 (RhlA::lacZ)
Procedure: Escherichia coli (E. coli) DH5a includes LuxR homolog SdiA detecting endogenous AHL synthesized by other microbial species, particularly, BHL.
For RhlR reporter strain analysis, the present invention used pJN105R (RhlR expression plasmid), anspSC11 (RhlA::lacZ fusion plasmid) and an sdiA variant co-transformed with the two plasmids. 1% of an overnight-cultured reporter strain (OD 595 nm=1.0) supplemented with 10 μg/mL gentamicin and 50 μg/mL ampicillin was cultured in a Luria-Bertani (LB) medium (Difco, Detroit, Mich., USA) with a positive control or a compound (0-1000 μM) and BHL (0-10 μM) (Sigma-Aldrich) at 37° C. for 2 hours. 0.4% arabinose (Sigma-Aldrich) was reacted with the resulting product at 37° C. for 1.5 hours. β-galactosidase activity was evaluated using a Tropix plus kit (Applied Biosystems, CA, USA), and OD 595 nm and luminescence were measured using a VICTOR x5 multimode plate reader (PerkinElmer, Waltham, Mass., USA). Relative RhlR activity was quantified by measuring luminescence at OD 595 nm. In addition, for LasR reporter strain analysis, the present invention used pJN105L (LasR expression plasmid) and pSC11 (lasI::lacZ fusion plasmid), E. coli DH5a co-transformed with the two plasmids, and OdDHL (Sigma-Aldrich).

P. aeruginosa = assay: Rhamnolipid production assay; type: cell-based, Pseudomonas aeruginosa; conditions: for Relative biological activity (%) Rhamnolipid production: Table 4, concentration not given; for activity at 10 µM / activity at 100 µM: Pseudomonas aeruginosa, 24 h, Table 3; for activity at 10 µM: read-out: Relative biological activity (%) Rhamnolipid production 10; for activity at 100 µM: read-out: Relative biological activity (%) Rhamnolipid production 100
Procedure: P. aeruginosa (OD 595 nm=1.0) cultured overnight was inoculated in an AB medium (1:100) with a positive control or compound (0100 μM), and incubated using a shaking culture for 24 hours at 37° C. The cell culture was centrifuged for 5 minutes at 4° C. and 12,000 g. Rhamnolipids were extracted twice by mixing 200 μL of a supernatant and 400 μL of 100% diethyl ether (JUNSEI, Tokyo, Japan). The supernatant was transferred to a new tube and evaporated. A dried sample was eluted with 20 μL of deionized water, and reacted with 180 μL of an Orcinal solution (0.19% Orcinal (Sigma-Aldrich) in 53% H2SO4). The reaction mixture was heated for 30 minutes at 80° C., and cooled for 15 minutes at room temperature. The amount of rhamnolipids was measured at OD 421 nm, and normalized in the cell culture solution at OD 595 nm using a multimode plate reader.

Pseudomonas aeruginosa [2] = assay: Bacterial growth under static condition (OD 595 nm of suspended culture); type: cell-based; conditions: for Relative biological activity (%) Bacterial growth: Table 4, concentration not given; for activity at 10 µM / activity at 100 µM: Pseudomonas aeruginosa, 24 h, Table 3; for activity at 10 µM: read-out: Relative biological activity (%) Bacterial growth 10; for activity at 100 µM: read-out: Relative biological activity (%) Bacterial growth 100
Procedure: as §1

[3] = Table 2, footnotes not given, 100 μM per Table 3, lower = stronger antagonism
[4] = footnotes not given, matches the 100 column of Table 3
[5] = read-out: Relative RhlR activity Antagonism, Table 2, footnotes not given, 100 μM per Table 3, lower = stronger antagonism
[6] = read-out: Relative RhIR Activity (%) Antagonism 100, Table 3, 100 (μM)

T1 sequence (P54292 whole entry): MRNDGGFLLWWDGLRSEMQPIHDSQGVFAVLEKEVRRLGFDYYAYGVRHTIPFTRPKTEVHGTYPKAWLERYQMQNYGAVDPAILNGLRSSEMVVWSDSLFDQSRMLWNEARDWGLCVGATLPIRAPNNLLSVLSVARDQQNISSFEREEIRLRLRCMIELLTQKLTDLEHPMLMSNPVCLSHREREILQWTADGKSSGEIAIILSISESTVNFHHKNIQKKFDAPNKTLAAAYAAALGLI

## CCCC(O)CC(=O)/C=C/c1ccc(O)cc1 (stereo not shown) [Compound 11d, (E)-5-Hydroxy-1-(4-hydroxyphenyl)oct-1-en-3-one]
Pseudomonas aeruginosa [1]
  Relative biological activity (%) Biofilm formation: 74* %
RhlR; [3]
  Relative RhlR activity Antagonism: 51** %
RhlR
  Relative RhIR activity (%) Agonism: 1** %
  Relative RhIR activity (%) Antagonism: 51** %
RhlR; [4]
  activity at 100 µM: 1%
RhlR; [5]
  remaining activity at 100 µM: 51%
P. aeruginosa
  Relative biological activity (%) Rhamnolipid production: 83%
Pseudomonas aeruginosa [2]
  Relative biological activity (%) Bacterial growth: 105%

## CCCC(O)CC(=O)/C=C/c1ccc(F)c(F)c1 (stereo not shown) [Compound 11o, (E)-1-(3,4-Difluorophenyl)-5-hydroxyoct-1-en-3-one]
Pseudomonas aeruginosa [1]
  activity at 10 µM: 72%
  activity at 100 µM: 53%
  biofilm formation compared with a control (in words): significantly inhibited
RhlR; [3]
  Relative RhlR activity Antagonism: 20** %
RhlR; Table 2, footnotes not given, matches the 100 column of Table 3
  Relative RhlR activity Agonism: 2** %
RhlR; 100 (μM)
  Relative RhIR Activity (%) Agonism 100: 2** %
RhlR
  Relative RhIR Activity (%) Agonism 1000: 5** %
  remaining activity at 10 µM: 60%
RhlR; [6]
  remaining activity at 100 µM: 20%
RhlR; [4]
  activity at 100 µM: 2%
RhlR; [5]
  remaining activity at 100 µM: 20%
P. aeruginosa
  activity at 10 µM: 63%
  activity at 100 µM: 50%
Pseudomonas aeruginosa [2]
  activity at 10 µM: 101%
  activity at 100 µM: 105%

## CCCCCC(=O)/C=C/c1ccc(F)c(F)c1 [Compound 13a, (E)-1-(3,4-Difluorophenyl)oct-1-en-3-one]
Pseudomonas aeruginosa [1]
  activity at 10 µM: 80%
  activity at 100 µM: 61%
  biofilm formation compared with a control (in words): significantly inhibited
RhlR; 100 (μM)
  Relative RhIR Activity (%) Agonism 100: 4** %
RhlR
  Relative RhIR Activity (%) Agonism 1000: 3** %
  remaining activity at 10 µM: 53%
RhlR; [6]
  remaining activity at 100 µM: 51%
RhlR; [4]
  activity at 100 µM: 4%
RhlR; [5]
  remaining activity at 100 µM: 51%
P. aeruginosa
  activity at 10 µM: 64%
  activity at 100 µM: 62%
Pseudomonas aeruginosa [2]
  activity at 10 µM: 103%
  activity at 100 µM: 103%

## CCCC(O)CC(=O)/C=C/c1ccc(O)c(OC)c1 (stereo not shown) [Compound 11a, (E)-5-Hydroxy-1-(4-hydroxy-3-methoxyphenyl)oct-1-en-3-one]
Pseudomonas aeruginosa [1]
  activity at 10 µM: 82%
  activity at 100 µM: 65%
  Relative biological activity (%) Biofilm formation: 81* %
RhlR; [3]
  Relative RhlR activity Antagonism: 65** %
RhlR; 100 (μM)
  Relative RhIR Activity (%) Agonism 100: 4** %
RhlR
  Relative RhIR Activity (%) Agonism 1000: 5** %
  Relative RhIR activity (%) Agonism: 4** %
  remaining activity at 10 µM: 73%
RhlR; [6]
  remaining activity at 100 µM: 65%
RhlR; [4]
  activity at 100 µM: 4%
RhlR; [5]
  remaining activity at 100 µM: 65%
P. aeruginosa
  activity at 10 µM: 73%
  activity at 100 µM: 57%
  Relative biological activity (%) Rhamnolipid production: 67* %
Pseudomonas aeruginosa [2]
  activity at 10 µM: 102%
  activity at 100 µM: 95%
  Relative biological activity (%) Bacterial growth: 101%

## CCCCCC(=O)C#Cc1ccc(F)c(F)c1 [Compound 32, 1-(3,4-Difluorophenyl)oct-1-yn-3-one]
Pseudomonas aeruginosa [1]
  activity at 10 µM: 71%
  activity at 100 µM: 56%
  biofilm formation compared with a control (in words): significantly inhibited
RhlR; 100 (μM)
  Relative RhIR Activity (%) Agonism 100: 3** %
RhlR
  Relative RhIR Activity (%) Agonism 1000: 5** %
  remaining activity at 10 µM: 39%
RhlR; [6]
  remaining activity at 100 µM: 17%
RhlR; [4]
  activity at 100 µM: 3%
RhlR; [5]
  remaining activity at 100 µM: 17%
P. aeruginosa
  activity at 10 µM: 60%
  activity at 100 µM: 58%
Pseudomonas aeruginosa [2]; 100 PM [sic] (100 μM)
  effect on cell growth (in words): slightly inhibited
Pseudomonas aeruginosa [2]
  activity at 10 µM: 100%
  activity at 100 µM: 88%

## CCCCC[C@@H](O)C#Cc1ccc(O)c(OC)c1 [Compound 23b, (R)-4-(3-Hydroxyoct-1-yn-1-yl)-2-methoxyphenol]
Pseudomonas aeruginosa [1]
  Relative biological activity (%) Biofilm formation: 79* %
RhlR; [3]
  Relative RhlR activity Antagonism: 27** %
RhlR
  Relative RhIR activity (%) Agonism: 3** %
  Relative RhIR activity (%) Antagonism: 27** %
RhlR; [4]
  activity at 100 µM: 3%
RhlR; [5]
  remaining activity at 100 µM: 27%
P. aeruginosa
  Relative biological activity (%) Rhamnolipid production: 77* %
Pseudomonas aeruginosa [2]
  Relative biological activity (%) Bacterial growth: 100%

## CCCCCC(=O)C#Cc1ccc(O)c(OC)c1 [Compound 21, 1-(4-Hydroxy-3-methoxyphenyl)oct-1-yn-3-one]
Pseudomonas aeruginosa [1]
  Relative biological activity (%) Biofilm formation: 72* %
RhlR; [3]
  Relative RhlR activity Antagonism: 29** %
RhlR
  Relative RhIR activity (%) Agonism: 3** %
  Relative RhIR activity (%) Antagonism: 29** %
RhlR; [4]
  activity at 100 µM: 3%
RhlR; [5]
  remaining activity at 100 µM: 29%
P. aeruginosa
  Relative biological activity (%) Rhamnolipid production: 81* %
Pseudomonas aeruginosa [2]
  Relative biological activity (%) Bacterial growth: 102%

## CCCCCCCCC(O)CC(=O)CCc1ccc(O)c(OC)c1 (stereo not shown) [Compound 7, 5-Hydroxy-1-(4-hydroxy-3-methoxyphenyl)tridecan-3-one]
Pseudomonas aeruginosa [1]
  Relative biological activity (%) Biofilm formation: 79** %
RhlR
  Relative RhIR activity (%) Agonism: 2** %
  Relative RhIR activity (%) Antagonism: 41** %
RhlR; [4]
  activity at 100 µM: 2%
RhlR; [5]
  remaining activity at 100 µM: 41%
P. aeruginosa
  Relative biological activity (%) Rhamnolipid production: 69* %
Pseudomonas aeruginosa [2]
  Relative biological activity (%) Bacterial growth: 89%

## CCCCCCCCCC(O)CC(=O)CCc1ccc(O)c(OC)c1 (stereo not shown) [Compound 8, 5-Hydroxy-1-(4-hydroxy-3-methoxyphenyl)tetradecan-3-one]
Pseudomonas aeruginosa [1]
  Relative biological activity (%) Biofilm formation: 80** %
RhlR
  Relative RhIR activity (%) Agonism: 2** %
  Relative RhIR activity (%) Antagonism: 36** %
RhlR; [4]
  activity at 100 µM: 2%
RhlR; [5]
  remaining activity at 100 µM: 36%
P. aeruginosa
  Relative biological activity (%) Rhamnolipid production: 60* %
Pseudomonas aeruginosa [2]
  Relative biological activity (%) Bacterial growth: 80** %
